The data set is described as follows: in vitro. The following applies: human, hela cells, % viability.

The values below come from PMC12040169 (PLOS Biology, 2025).

Structures are written as SMILES.

Consider `O=C(NC(Cc1c[nH]c2ccccc12)C(=O)NC1CCCCC1)OCc1ccccc1` (stereo not shown) [CBK085144], for which the viability at 28.5 h, 10 µM was found to be 89%.

As to `COc1ccc(CC(=O)Nc2ccc(S(=O)(=O)NC(C)C)cc2)cc1` [CBK267833], the viability at 28.5 h, 10 µM came out at 93.2%.

For the molecule `CS(=O)(=O)Nc1cccc(C2=NN(C(=O)CCC(=O)O)C(c3cccc(F)c3)C2)c1` (stereo not shown) [CBK268804], the viability at 28.5 h, 10 µM was 85%.

Consider `Cc1ccc(CN(Cc2nccn2C)C2CC(C)(C)NC(C)(C)C2)o1` [CBK283190], for which the viability at 28.5 h, 10 µM was determined as 112%.

On to `O=C(O)c1c2c(nc3ccccc13)C(=Cc1ccc3c(c1)OCCO3)CC2` [CBK297479], for which the viability at 28.5 h, 10 µM was found to be 96.3%.

For the molecule `COc1ccc(-c2cnc3[nH]c(=O)n([C@@H](CO)C(C)C)c3n2)c(OC)c1OC` [CBK064774], the viability at 28.5 h, 10 µM amounted to 94.3%.

With `CC(NS(=O)(=O)Cc1ccccc1Cl)C(=O)N1CCCCC1` (stereo not shown) [CBK304928], the viability at 28.5 h, 10 µM stood at 93.7%.

As to `CCOC(=O)N1CCC2(CC1)Oc1ccc(Cl)cc1O2` [CBK084590], the viability at 28.5 h, 10 µM (bulk resorufin, single well) is 94.2%.

Regarding `O=[N+]([O-])c1cccnc1Oc1cccc(Cl)c1Cl` [CBK002596], the viability at 28.5 h, 10 µM worked out at 98%.

Regarding `CCCSc1scc2c1-c1n[nH]cc1CC2` [CBK017006], the viability at 28.5 h, 10 µM stood at 99.3%.

In the case of `CCCNC(=O)CN1C(=O)N2CCCN=C2c2ccc(Cl)cc21` [CBK284389], the viability at 28.5 h, 10 µM was found to be 82.8%.

Consider `Cc1ccc(C(Cn2cncc2-c2cn(C)nc2C)N(C)C)cc1` (stereo not shown) [CBK281896], for which the viability at 28.5 h, 10 µM amounted to 98.7%.

On to `CCOc1ccccc1C(=O)Nc1cnc(-c2cccc(OC(F)(F)F)c2)c(-c2cccnc2)n1` [CBK036952], for which the viability at 28.5 h, 10 µM amounted to 114%.

On to `Cc1csc(CN(C)C(=O)c2cc3sccc3[nH]2)n1` [CBK304334], for which the viability at 28.5 h, 10 µM is 92.7%.

For `COc1cc(C(c2c(C(=O)O)[nH]c3ccccc23)c2c(C(=O)O)[nH]c3ccccc23)cc(I)c1O` [CBK267804], the viability at 28.5 h, 10 µM is 90.6%.

On to `Cn1c(=O)c2c(nc(CN3CCCCC3)n2CC(=O)c2ccccc2)n(C)c1=O` [CBK269563], for which the viability at 28.5 h, 10 µM stood at 87.1%.

Regarding `CC(C)COc1ccc(-c2nonc2NC(=O)c2cccs2)cc1` [CBK299822], the viability at 28.5 h, 10 µM was determined as 103%.

`COc1cc(CNC(=O)c2cccc(-c3ccc4c(c3)COC3(CCNCC3)O4)c2)cc(OC)c1OC` [CBK110087]: the viability at 28.5 h, 10 µM (bulk resorufin, single well) worked out at 87.8%.

Turning to `COc1ccc2c(c1)C1(CC(=O)N(CC(=O)N(C)C)C1=O)C(=O)N2CCCN(C)S(C)(=O)=O` (stereo not shown) [CBK075889], the viability at 28.5 h, 10 µM is 118%.

In the case of `N#Cc1ccccc1CSc1nc2ccc([N+](=O)[O-])cc2[nH]1` [CBK269589], the viability at 28.5 h, 10 µM came to 84.5%.

Turning to `COc1ccc(C2SCCCS2)cc1C(C)(C)C` [CBK018886], the viability at 28.5 h, 10 µM amounted to 105%.

Regarding `COc1cccn(CC(=O)N(C)CCc2scnc2C)c1=O` [CBK306726], the viability at 28.5 h, 10 µM was 94.2%.

For the molecule `CN(C)CCCNC(=O)C1CCN(c2cncc(-c3ccc(O)cc3)n2)CC1` [CBK126929T], the viability at 28.5 h, 10 µM was 94.1%.

Turning to `O=C(CSc1nsc(SCC(=O)c2ccccc2)n1)c1ccccc1` [CBK264142], the viability at 28.5 h, 10 µM came out at 120%.

For the molecule `COc1cccc(-c2nc(C3CCN(CCc4ccc(F)cc4)CC3)n3ccccc23)c1` [CBK035373], the viability at 28.5 h, 10 µM was 94.7%.

As to `Cc1cccc(C(=O)Nc2c(C(=O)Nc3ccc(Br)cc3)cnn2-c2ccccc2)c1` [CBK264839], the viability at 28.5 h, 10 µM was determined as 113%.

`Cc1ccc(C2(CN3CCC(NC(=O)CO)CC3)CCCC2)cc1` [CBK282628]: the viability at 28.5 h, 10 µM was found to be 88.5%.

As for `C[C@H](c1ccccc1)n1c(=O)[nH]c2ncc(-c3cccc4ccccc34)nc21` [CBK064241], the viability at 28.5 h, 10 µM came to 101%.

For `O=C(CSc1nnnn1-c1cccnc1)NC1CCCCCC1` [CBK270092], the viability at 28.5 h, 10 µM was determined as 83.9%.

As for `Cc1ccc(CC(=O)Nc2nc(Cc3n[nH]c(=S)n3C)cs2)cc1` [CBK296766], the viability at 28.5 h, 10 µM came out at 90.5%.

As for `O=C(Nc1ccc(F)cc1)c1ccccc1NS(=O)(=O)c1ccc(C(F)(F)F)cc1[N+](=O)[O-]` [CBK045439], the viability at 28.5 h, 10 µM worked out at 108%.

As to `Cc1oc(-c2ccccc2)cc1C(=O)NCc1ccc(OC2CCNCC2)cc1` [CBK038915T], the viability at 28.5 h, 10 µM stood at 108%.

For the molecule `O=C(CCCn1cc([N+](=O)[O-])cn1)Nc1cc(C(F)(F)F)ccc1Cl` [CBK293987], the viability at 28.5 h, 10 µM came to 108%.

Turning to `O=C1CCC(=O)N1CCOc1nccnc1N1CCN(Cc2ccccc2F)CC1` [CBK084289], the viability at 28.5 h, 10 µM is 97.8%.

In the case of `CC(C)(CC(=O)O)CC(=O)Nc1cc(S(=O)(=O)N2CCCC2)ccc1Cl` [CBK296702], the viability at 28.5 h, 10 µM was 95.4%.

As for `CSC(C)CCN1CCn2nc(CNc3cnccn3)cc2C1` (stereo not shown) [CBK307376], the viability at 28.5 h, 10 µM came out at 95.5%.

Consider `O=C1CCC(=O)N1CCOc1nccnc1OC1CCN(Cc2ccc(C(F)(F)F)cc2)CC1` [CBK084341], for which the viability at 28.5 h, 10 µM came out at 96%.

In the case of `O=C(Nc1cccc(-c2nnn[nH]2)c1)c1ccc(C2CCCCC2)cc1` [CBK296712], the viability at 28.5 h, 10 µM was determined as 114%.

Regarding `COCCn1c(SCCC(=O)O)nc2c1c(=O)[nH]c(=O)n2C` [CBK139751], the viability at 28.5 h, 10 µM amounted to 82%.

In the case of `O=C(O)c1cccc(NC(=O)c2cccc(S(=O)(=O)N3CCc4ccccc4C3)c2)c1` [CBK265187], the viability at 28.5 h, 10 µM amounted to 108%.

For `Cc1nn2c(O)c3c(nc2c1-c1cccs1)CCC3` [CBK283729], the viability at 28.5 h, 10 µM came to 85.7%.

As to `CC(C)(C)C1=CC2=NC3(CCC3)C3C[C@](O)(COCc4ccccc4)[C@@H](O)[C@@H]3N2O1` (stereo partly shown) [CBK303259], the viability at 28.5 h, 10 µM turned out to be 102%.

As to `CCn1cc(CN(CCOC)C(=O)c2cc3c(Cl)cccc3[nH]2)cn1` [CBK306903], the viability at 28.5 h, 10 µM is 91.5%.

As for `COc1cc(/C=N/c2cccc3c(/N=C/c4ccc(O)c(OC)c4)cccc23)ccc1O` [CBK261224], the viability at 28.5 h, 10 µM was 85.8%.

With `CC(=O)N(C)c1ccc(NC(=O)c2ccccc2C(=O)O)cc1` [CBK270693], the viability at 28.5 h, 10 µM was found to be 97.9%.

Regarding `CCOCCN1CCC(C(=O)NC(c2ccc(F)cc2)c2nc(OC)cc(OC)n2)CC1` (stereo not shown) [CBK148087], the viability at 28.5 h, 10 µM is 98%.

For the molecule `O=C(Cc1ccc2c(c1)OCO2)Nc1nn(Cc2ccc(C(F)(F)F)cc2)c2ccccc12` [CBK048401], the viability at 28.5 h, 10 µM stood at 115%.

As to `Cc1c(Cc2ccccc2)sc(NC(=O)c2cccnc2)c1C(N)=O` [CBK269851], the viability at 28.5 h, 10 µM was found to be 101%.

Consider `Cc1cc(C)n(CC(=O)N2CCC(c3cc4cccnc4[nH]3)CC2)n1` [CBK284999], for which the viability at 28.5 h, 10 µM amounted to 91.3%.

For `Cc1cc(I)ccc1NC(=O)CCC(=O)N/N=C/c1ccco1` [CBK261991], the viability at 28.5 h, 10 µM turned out to be 99.4%.

Turning to `Cc1cc(NC(=O)CCCN2C(=O)c3cccc4cccc(c34)C2=O)n(-c2ccccc2)n1` [CBK265874], the viability at 28.5 h, 10 µM came to 109%.

Consider `Cc1cc(-c2cn3ccnc3c(N3CCOCC3)n2)cc(C)c1O` [CBK066691], for which the viability at 28.5 h, 10 µM came to 97.4%.

On to `CCn1c(COc2cccc(C)c2)nnc1SCC(=O)c1ccccc1` [CBK267143], for which the viability at 28.5 h, 10 µM came to 97.4%.

Consider `COc1ccc2[nH]cc(CCNC3CCc4cccc(OC)c4C3)c2c1` (stereo not shown) [CBK016569C], for which the viability at 28.5 h, 10 µM stood at 80.1%.

For the molecule `O=C(/C=C/c1ccccc1)N/C(=C/c1ccccc1)C(=O)Nc1ccc2ccccc2c1` [CBK265023], the viability at 28.5 h, 10 µM worked out at 89.6%.
